Data taken from patent US11135308B2, “Maytansinoid derivatives with self-immolative peptide linkers and conjugates thereof” (priority 2017, dated 2021).

Tests used:
H1703 Cells = test: In vitro cytotoxicity of predominant ADC metabolites, H1703; format: cell-based
Protocol: (§1) Assays were performed in flat bottom 96-well plates in triplicate for each data point. Test articles were first diluted in complete cell culture media using 5-fold dilution series and 100 μL were added into each well. The final concentrations typically ranged from 3×10^−8 M to 8×10^−14 M. The target cells were then added to the test articles at 1,500 to 3,000 cells per well in 100 μL of complete culture media. The mixtures were incubated at 37° C. in a humidified 5% CO2 incubator for 5 days. Viability of the remaining cells was determined by the WST-8 (Tetrazolium salt-8; 2-(2-methoxy-4-nitrophenyl)-3-(4-nitrophenyl)-5-(2,4-disulfophenyl)-2H-tetrazolium) based colorimetric assay using the Cell Counting Kit-8 (Dojindo Molecular Technologies, Inc., Rockville, Md.). The WST-8 is reduced by dehydrogenases in live cells to give a yellow-colored formazan product that is soluble in tissue culture media. […] The WST-8 signals were then measured using a microplate plate reader at optical density of 450 nm. The surviving fraction was calculated by dividing the value of each treated sample by the average value of untreated controls, and plotted against the test article concentrations in a semi-log plot for each treatment. IC50 values were determined using nonlinear regression (curve fit) with GraphPad Prism v5 program (GraphPad Software, La Jolla, Calif.). […]

FRα-expressing KB cells = test: In vitro metabolism study in KB cells; format: in vitro ADME; conditions: KB cells treated with saturating amount of 17c conjugate for 24 hours; UHPLC/HRMS
Protocol: FRα-expressing KB cells were treated with a saturating amount of 17c conjugate for 24 hours. Catabolite-containing media was incubated with 5 mM NEM to cap any free thiol present and then captured by pre-bound protein A-anti-maytansinoid antibody complex. The catabolites were released by acetone extraction, and analyzed by UHPLC/HRMS.

COLO704 Cells = test: In vitro cytotoxicity of predominant ADC metabolites, COLO704; format: cell-based
Protocol: as §1

H1975 Cells = test: In vitro cytotoxicity of predominant ADC metabolites, H1975; format: cell-based
Protocol: as §1

Compound	IC50 (H1703 Cells) [pM]	catabolites identified in cell culture media (FRα-expressing KB cells)	IC50 (COLO704 Cells) [pM]	IC50 (H1975 Cells) [pM]
COc1cc2cc(c1Cl)N(C)C(=O)C[C@H](OC(=O)[C@H](C)N(C)C(=O)CCCCCSC)[C@]1(C)O[C@H]1[C@H](C)[C@@H]1C[C@@](O)(NC(=O)O1)[C@H](OC)/C=C/C=C(\C)C2 [metabolite 25a, DM-CO—(CH2)5-SMe]	2.27	major effluxed catabolites	3.04	–
COc1cc2cc(c1Cl)N(C)C(=O)C[C@H](OC(=O)[C@H](C)N(C)C(=O)CCCSC)[C@]1(C)O[C@H]1[C@H](C)[C@@H]1C[C@@](O)(NC(=O)O1)[C@H](OC)/C=C/C=C(\C)C2 [metabolite 25b, DM-CO—(CH2)3-SMe]	5.92	–	6.88	5.6
